In patent publication US20220218851A1, “COMPOUNDS AND METHODS FOR IMAGING IMMUNE ACTIVITY” (Board of Regents, The University of Texas System, priority 2019, published 2022):
Entries after “also recorded” stand apart in the source; their conditions may differ.

How the values were obtained:
[1] = tested on: LPS-induced arthritis; experiment: LPS-induced model of arthritis, PET imaging and L-012 BLI; assay type: in vivo, mouse
Procedure: Herein, C57BL6/N mice were injected i.a. with LPS, left ankle, or vehicle, right ankle. After 24 hours, mild inflammation of the left ankle was confirmed by visual inspection. 1 hour dynamic PET scans were acquired post i.v. injection of [^18F]4FN. Mice were subsequently imaged for ROS by BLI (L-012). A) 1 hour static [^18F]4FN PET image (left) and BLI (right). B) PET image-derived time-activity curves (TACs) were quantified for the ankles (left, n=4). […] C) H&E staining cross-validated local inflammation (vehicle, left panel; LPS, right panel), utilizing the same mouse as imaged in A. D) Image-based biodistribution was calculated from the dynamic PET/CT data and SUV plotted for various organs over time.
[^18F]4FN PET was employed to image a model of inflammatory arthritis and validate its correlation with L012, a known ROS/RNS bioluminescence sensor.

[2] = Stability in mouse plasma; assay type: in vitro ADME
Procedure: [^18F]4FN was synthesized on the automated module GE TracerLab-FX from precursor 1 in 6.8±2.5% (n=22) activity yield, by means of a copper-mediated radiofluorination of the corresponding Boc-protected pinacol boronic ester, followed by deprotection, purification and reformulation (Scheme 2; Tredwell et al., 2014). [^18F]4FN was obtained in >99% radiochemical purity, 50-140 GBq/μmol and up to 4 h shelf-stability in PBS (10% EtOH). [^18F]4FN was also stable in mouse plasma for at least 1 h.

[3] = tested on: neutrophil-like human HL-60 cells; experiment: [^18F]4FN cellular retention in PMA-activated neutrophil-like HL-60 cells; assay type: cell-based; conditions: PMA-activated differentiated HL-60 cells, normalized to vehicle
Procedure: HL-60 cells were first differentiated to yield “neutrophil-like” cells. Then, in parallel, cell aliquots from each batch were imaged with L-012 (to confirm ROS production by bioluminescence) and incubated with 6.2 kBq of [^18F]4FN. To induce ROS, all cells were incubated with PMA. […] Data were quantified as a ratio of the cell-associated radioactive counts per milligram protein over concentration of radiotracer in the extracellular space, and then normalized to vehicle.

[4] = In vivo mouse blood and urine metabolism by radio-HPLC
Procedure: 3 Months old Balb/c female mice or 20-26 week-old female C57B16 mice (Taconic) were topically treated with PMA (Sigma) (400 μM) in ethanol on the right ear or vehicle, ethanol, on the left ear. 24 hrs later, inflammation of the right ear was validated by visual inspection for redness and swelling. Mice were then injected IV (unless noted) with [^18F]FN or [^18F]FNS or [^18F]FNG derivatives as noted and PET/CT images were acquired at times indicated, typically 1 hr post injection. Mice, n=3 for [^18F]FN and [^18F]FNS, were euthanized at 1.5 hr post injection for blood metabolism analysis. In one experiment, adult (3 month old Balb/c) were imaged on an in vivo imaging system (IVIS Spectrum, PE; 5 min, binning 16, 25 cm FOV) 10 min post injection of Luminol (200 mg/kg) IP to confirm production of reactive oxygen species. For [^18F]FDG PET imaging experiments, mice were fasted for >4 hr prior to FDG injection. Mice were injected with [^18F]FDG IV under light anesthesia and then allowed to awake, move and drink water at libitum. Cages were kept on a cage warmer during uptake and washout periods. Mice were imaged starting at 45 min post-injection with a 10 min PET/CT scan (Albira, Bruker).
In vivo mouse blood metabolism was also performed. Blood was drawn from inflamed, non-inflamed and MPO knock-out mice at 5 min and 1.5 h post injection, processed and analyzed by analytical radio-HPLC. […] While 4-fluoronaphthol metabolism has not been studied, naphthol metabolism is well documented in the literature: the molecule is reported to be quickly transformed into glucuronic and sulfuric esters, and this pathway is conserved from flies to man (Narukawa et al., 2004 and Terriere et al., 1961). […] To test this hypothesis, [^18F]4FN was transformed enzymatically with glucuronosyltransferase and sulfonyl transferase into the corresponding glucuronide and sulfate derivatives (Scheme 3), respectively, and the products analyzed by radio-HPLC.

For `Oc1ccc([18F])c2ccccc12` [[^18F]4FN, 4-[^18F]fluoro-1-naphthol], the “correlation of PET accumulation in inflamed ankles with L012 bioluminescence” value ([1]; 1 hr, per animal basis) was “correlated strongly with L012; also recorded: directly correlated”, the “imaging of inflammatory ROS burst by PET” value ([1]; C57BL6/N mice, LPS i.a. left ankle, i.v. tracer) was “readily image the inflammatory ROS burst” and the “stable in mouse plasma” value [2] was “at least 1 h”. The “[^18F]4FN retention in activated cells vs vehicle (ratio)” value [3] was greater than 1, the blood metabolites ([4]; 5 min after injection) was “Metabolites are also present” and the blood metabolites ([4]; inflamed mice, 1.5 h post injection) was “more polar metabolites were observed”. The “blood radio-HPLC, parent compound” value ([4]; non-inflamed and MPO knock-out mice, 1.5 h post injection) was “the parent compound could still be seen”.
